In patent US12384769B2, “Heteroaryl-substituted aminoalkyl azole compounds as pesticides” (Elanco Animal Health GmbH, priority 2019, dated 2025) one finds pest or weed control and mortality data, which are given here for twelve compounds.

Common to all, as to assay type: in vivo
For test [1], the system named is Boophilus microplus. Kind of test: Boophilus microplus injection test (BOOPMI Injection). The settings on record: Rhipicephalus microplus, 168 h, injection into adult engorged female ticks, egg deposition after 7 days, read-out: activity (efficacy, infertile eggs); for pest or weed control at 0.004 mg: 4 μg/animal; for pest or weed control at 0.02 mg: 20 μg/animal. As to the method:
Boophilus microplus—Injection Test (BOOPMI Injection)
(§1) Solvent: dimethyl sulfoxide
To produce a suitable preparation of active compound, 10 mg of active compound are dissolved in 0.5 mL solvent, and the concentrate is diluted with solvent to the desired concentration.
Five adult engorged female ticks (Boophilus microplus) are injected with 1 μL compound solution into the abdomen. The ticks are transferred into replica plates and incubated in a climate chamber.
After 7 days egg deposition of fertile eggs is monitored. Eggs where fertility is not visible are stored in a climate chamber till hatching after about 42 days. An efficacy of 100% means all eggs are infertile; 0% means all eggs are fertile.

Test [2] has as its system Rhipicephalus microplus (strain Parkhurst, resistant against synthetic pyrethroids). In words: Rhipicephalus microplus in-vitro contact test, larval cattle tick (BOOPMI Contact). The settings on record: 5 μg/cm^2 (=500 g/ha), after 48 hours, read-out: activity (efficacy, larvae dead or moribund). The method, then:
Rhipicephalus microplus—in-Vitro Contact Tests Larval Cattle Tick (Strain Parkhurst, Resistant Against Synthetic Pyrethroids) (BOOPMI Contact)
9 mg compound is solved in 1 ml acetone and diluted with acetone to the desired concentration. 250 μL of the test solution is filled in 25 ml glass test tubes and homogeneously distributed on the inner walls by rotation and tilting on a shaking device (2 h at 30 rpm). With a compound concentration of 900 ppm, an inner surface of 44.7 cm^2 and a homogeneous distribution, a dose of 5 μg/cm^2 is achieved.
After the solvent has evaporated, each test tube is filled with 20-50 cattle tick larvae (Rhipicephalus microplus), closed with a perforated lid and incubated in a horizontal position at 85% relative humidity and 27° C. in an incubator. After 48 hours efficacy is determined. The larvae are patted on the ground of the tubes and negative geotactic behaviour is recorded.
An efficacy of 100% means all larvae are dead or moribund; 0% means no larvae are dead or moribund.

Test [3] relates to Ctenocephalides felis. In words: Ctenocephalides felis in-vitro contact test, adult cat flea. The settings on record: 5 μg/cm^2 (=500 g/ha), after 48 hours, read-out: activity (efficacy, fleas dead or moribund). The method, then:
Ctenocephalides felis—in-Vitro Contact Tests Adult Cat Flea
9 mg compound is solved in 1 ml acetone and diluted with acetone to the desired concentration. […] the test solution is filled in 25 ml glass test tubes and homogeneously distributed on the inner walls by rotation and tilting on a shaking device (2 h at 30 rpm). With a compound concentration of 900 ppm, an inner surface of 44.7 cm^2 and a homogeneous distribution, a dose of 5 μg/cm^2 is achieved.
After the solvent has evaporated, each test tube is filled with 5-10 adult cat fleas (Ctenocephalides felis), closed with a perforated lid and incubated in a lying position at room temperature and relative humidity. After 48 hours efficacy is determined. The fleas are patted on the ground of the tubes and are incubated on a heating plate at 45-50° C. for at most 5 minutes Immotile or uncoordinated moving fleas, which are not able to escape the heat by climbing upwards, are marked as dead or moribund.
An efficacy of 100% means all fleas are dead or moribund; 0% means no fleas are dead or moribund.

The test system of test [4] is Ctenocephalides felis. Kind of test: Ctenocephalides felis oral test (CTECFE). The settings on record: 48 h, 100 ppm in cattle blood, after 2 days. As to the method: Ctenocephalides felis—Oral Test (CTECFE)
as §1
To produce a suitable preparation of active compound, 10 mg of active compound are dissolved in 0.5 ml solvent, and the concentrate is diluted with cattle blood to the desired concentration.
Approximately 20 adult unfed cat fleas (Ctenocephalides felis) are placed in flea chambers. The blood chamber, sealed with parafilm on the bottom, are filled with cattle blood supplied with compound solution and placed on the gauze covered top of the flea chamber, so that the fleas are able to suck the blood. The blood chamber is heated to 37° C. whereas the flea chamber is kept at room temperature.
After 2 days mortality in % is determined. 100% means all the fleas have been killed; 0% means none of the fleas have been killed.

Test [5] deals with Diabrotica balteata. Kind of test: Diabrotica balteata spray test. The settings on record: 168 h, wheat seeds, after 7 days, read-out: activity (efficacy, seedlings grown); for pest or weed control at 160 µg/disc, 500 g/ha: 500 g/ha (=160 μg/well). As to the method: Diabrotica balteata—Spray Test
Solvent: 78.0 parts by weight of acetone • • 1.5 parts by weight of dimethylformamide
(§2) Emulsifier: alkylarylpolyglycol ether
To produce a suitable preparation of active compound, 1 part by weight of active compound is mixed with the stated amount of solvent, and the concentrate is diluted with water, containing an emulsifier concentration of 1000 ppm, to the desired concentration. Further test concentrations are prepared by dilution with emulsifier containing water.
Soaked wheat seeds (Triticum aestivum) are placed in a multiple well plate filled with agar and some water and are incubated for 1 day to germinate (5 seeds per well). The germinated wheat seeds are sprayed with a test solution containing the desired concentration of the active ingredient. Afterwards each unit is infected with 10-20 larvae of the banded cucumber beetle (Diabrotica balteata).
After 7 days efficacy in % is determined. 100% means all the seedlings have grown up like in the untreated, uninfected control; 0% means none of the seedlings have grown.

Test [6] concerns Spodoptera frugiperda. Kind of test: Spodoptera frugiperda spray test. The settings on record: in Zea mays, 168 h, read-out: activity (mortality). As to the method:
Spodoptera frugiperda—Spray Test
Solvent: 78.0 parts by weight acetone • 1.5 parts by weight dimethylformamide
as §2
To produce a suitable preparation of active compound, 1 part by weight of active compound is mixed with the stated amount of solvents and is diluted with water, containing an emulsifier concentration of 1000 ppm, to the desired concentration. Further test concentrations are prepared by dilution with emulsifier containing water.
Maize (Zea mays) leaf sections are sprayed with a preparation of the active ingredient of the desired concentration. Once dry, the leaf sections are infested with fall armyworm larvae (Spodoptera frugiperda).
After 7 days mortality in % is determined. 100% means all caterpillars have been killed and 0% means none of the caterpillars have been killed.

Take `Cc1nc([C@H](C)Nc2nc3cc(C(F)(F)F)cc(Cl)c3o2)n(-c2ncccn2)n1` [Example I-014]: in test [1], the pest or weed control at 0.004 mg is 100% and the pest or weed control at 0.02 mg is 100%. The pest or weed control at 5 µg/cm2 in test [2] is 100%. The pest or weed control at 5 µg/cm2, 5 µg/cm2 in test [3] was 80%. Moreover, the mortality (commonly the percentage killed) at 100 ppm in test [4] was 100%. For the same compound, in test [5], the pest or weed control at 100 g/ha stood at 100% and the pest or weed control at 160 µg/disc, 500 g/ha came out at 100%. In addition, the mortality at 500 g/ha in test [6] came to 100%.

As to `Cc1nc([C@H](C)Nc2nc3cc(C(F)(F)F)c(Cl)cc3o2)n(-c2ccc(C#N)cn2)n1` [Example I-019], the pest or weed control at 0.02 mg in test [1] is 100%. Also, the pest or weed control at 5 µg/cm2 in test [2] was found to be 100%. Further, the pest or weed control at 5 µg/cm2, 5 µg/cm2 in test [3] was 100%. For the same compound, in test [5], the pest or weed control at 100 g/ha came to 100% and the pest or weed control at 160 µg/disc, 500 g/ha stood at 100%. In test [6], the mortality at 500 g/ha worked out at 100%.

With `C[C@H](Nc1nc2cc(C(F)(F)F)cc(Cl)c2o1)c1ncnn1-c1ncc(C#N)cn1` [Example I-042, 2-{5-[(1S)-1-{[7-Chlor-5-(trifluormethyl)-1,3-benzoxazol-2-yl]amino}ethyl]-1H-1,2,4-triazol-1-yl}pyrimidin-5-carbonitril], in test [2], the pest or weed control at 5 µg/cm2 was found to be 90%. For the same compound, in test [3], the pest or weed control at 5 µg/cm2, 5 µg/cm2 was 90%.

On to `C[C@H](Nc1nc2cc(C(F)(F)F)cc(Cl)c2o1)c1ncnn1-c1cc(C#N)ccn1` [Example I-052, 2-{5-[(1S)-1-{[7-Chlor-5-(trifluormethyl)-1,3-benzoxazol-2-yl]amino}ethyl]-1H-1,2,4-triazol-1-yl}isonicotinonitril], for which, in test [1], the pest or weed control at 0.004 mg amounted to 100% and the pest or weed control at 0.02 mg worked out at 100%. Also, in test [3], the pest or weed control at 5 µg/cm2, 5 µg/cm2 turned out to be 100%. In test [5], the pest or weed control at 160 µg/disc, 500 g/ha turned out to be 100%. Besides, the mortality at 500 g/ha in test [6] was found to be 100%.

Consider `C[C@H](Nc1nc2cc(C(F)(F)F)c(Cl)cc2o1)c1ncnn1-c1cnc(C#N)cn1` [Example I-057, 5-{5-[(1S)-1-{[6-Chlor-5-(trifluormethyl)-1,3-benzoxazol-2-yl]amino}ethyl]-1H-1,2,4-triazol-1-yl}pyrazin-2-carbonitril], for which the pest or weed control at 0.004 mg in test [1] is 80%. For the same compound, the pest or weed control at 5 µg/cm2 in test [2] worked out at 100%. For the same compound, the pest or weed control at 5 µg/cm2, 5 µg/cm2 in test [3] turned out to be 100%. The compound also came in with a mortality at 100 ppm in test [4] of 100%. The mortality at 100 g/ha in test [6] came out at 100%.

On to `COc1cnc(-n2ncnc2[C@H](C)Nc2nc3cc(C(F)(F)F)c(Cl)cc3o2)nc1` [Example I-058, 6-Chlor-N-{(1S)-1-[1-(5-methoxypyrimidin-2-yl)-1H-1,2,4-triazol-5-yl]ethyl}-5-(trifluormethyl)-1,3-benzoxazol-2-amin], for which, in test [2], the pest or weed control at 5 µg/cm2 worked out at 100%. Further, the pest or weed control at 5 µg/cm2, 5 µg/cm2 in test [3] worked out at 100%. Also, in test [5], the pest or weed control at 100 g/ha is 100%. The mortality at 100 g/ha in test [6] amounted to 83%.

For `C[C@H](Nc1nc2cc(S(F)(F)(F)(F)F)cc(Cl)c2o1)c1ncnn1-c1ncccn1` [Example I-069, 7-Chlor-5-(pentafluor-lambda^6-sulfanyl)-N-{(1S)-1-[1-(pyrimidin-2-yl)-1H-1,2,4-triazol-5-yl]ethyl}-1,3-benzoxazol-2-amin], in test [1], the pest or weed control at 0.004 mg came to 100%. Also, the pest or weed control at 5 µg/cm2 in test [2] stood at 80%. The same compound gave a mortality at 100 ppm in test [4] of 100%. Besides, the pest or weed control at 100 g/ha in test [5] is 100%. Besides, in test [6], the mortality at 100 g/ha was 100%.

`C[C@H](Nc1nc2cc(OC(F)(F)F)cc(Cl)c2o1)c1ncnn1-c1ncccn1` [Example I-070, 7-Chlor-N-{(1S)-1-[1-(pyrimidin-2-yl)-1H-1,2,4-triazol-5-yl]ethyl}-5-(triflourmethoxy)-1,3-benzoxazol-2-amin]: the pest or weed control at 5 µg/cm2, 5 µg/cm2 in test [3] was 90%. Besides, in test [4], the mortality at 100 ppm turned out to be 100%. Further, in test [5], the pest or weed control at 100 g/ha worked out at 100%. The mortality at 100 g/ha in test [6] turned out to be 100%.

In the case of `C[C@H](Nc1nc2cc(OC(F)F)cc(Cl)c2o1)c1ncnn1-c1ncc(Br)cn1` [Example I-071, N-{(1S)-1-[1-(5-Brompyrimidin-2-yl)-1H-1,2,4-triazol-5-yl]ethyl}-7-chlor-5-(difluormethoxy)-1,3-benzoxazol-2-amin], the pest or weed control at 5 µg/cm2, 5 µg/cm2 in test [3] turned out to be 90%. The compound further gave a mortality at 100 ppm in test [4] of 100%. Besides, in test [5], the pest or weed control at 100 g/ha amounted to 100%.

With `C[C@H](Nc1nc2cc(OC(F)F)cc(Cl)c2o1)c1ncnn1-c1ncccn1` [Example I-074, 7-Chlor-5-(difluormethoxy)-N-{(1S)-1-[1-(pyrimidin-2-yl)-1H-1,2,4-triazol-5-yl]ethyl}-1,3-benzoxazol-2-amin], the pest or weed control at 0.004 mg in test [1] is 80%. Further, in test [3], the pest or weed control at 5 µg/cm2, 5 µg/cm2 worked out at 100%. Further, in test [4], the mortality at 100 ppm came to 100%.

With `C[C@H](Nc1nc2cc(OC(F)(F)F)cc(Cl)c2o1)c1ncnn1-c1ncc(Cl)cn1` [Example I-079, 7-Chlor-N-{(1S)-1-[1-(5-chlorpyrimidin-2-yl)-1H-1,2,4-triazol-5-yl]ethyl}-5-(trifluormethoxy)-1,3-benzoxazol-2-amin], the pest or weed control at 0.004 mg in test [1] worked out at 80%. In test [3], the pest or weed control at 5 µg/cm2, 5 µg/cm2 is 100%. The mortality at 100 ppm in test [4] is 100%. Also, in test [5], the pest or weed control at 100 g/ha worked out at 100%.

With `C[C@H](Nc1nc2cc(C(F)(F)F)c(Br)cn2n1)c1ncnn1-c1ncccn1` [Example I-094, 6-bromo-N-{(1S)-1-[1-(pyrimidin-2-yl)-1H-1,2,4-triazol-5-yl]ethyl}-7-(trifluoromethyl)[1,2,4]triazolo[1,5-a]pyridin-2-amine], in test [1], the pest or weed control at 0.004 mg came to 100% and the pest or weed control at 0.02 mg was found to be 100%. In test [3], the pest or weed control at 5 µg/cm2, 5 µg/cm2 was determined as 100%. Also, the mortality at 100 ppm in test [4] worked out at 100%. Besides, the pest or weed control at 100 g/ha in test [5] amounted to 100%.
